Results on eight molecules are retold here after patent US4841051A, “Phenylpiperazine derivatives” (Nippon Kayaku Kabushiki Kaisha, priority 1985, dated 1989).

The target of data set [1] is T1, isolated vas deferens of a rat (Rattus norvegicus, UniProt P43140).
T1 construct: The vas deferens was isolated from SD male rats and cut into strips about 20 mm long; from tissue; host or cells: vas deferens of SD male rats
T1 sequence (P43140 1-466): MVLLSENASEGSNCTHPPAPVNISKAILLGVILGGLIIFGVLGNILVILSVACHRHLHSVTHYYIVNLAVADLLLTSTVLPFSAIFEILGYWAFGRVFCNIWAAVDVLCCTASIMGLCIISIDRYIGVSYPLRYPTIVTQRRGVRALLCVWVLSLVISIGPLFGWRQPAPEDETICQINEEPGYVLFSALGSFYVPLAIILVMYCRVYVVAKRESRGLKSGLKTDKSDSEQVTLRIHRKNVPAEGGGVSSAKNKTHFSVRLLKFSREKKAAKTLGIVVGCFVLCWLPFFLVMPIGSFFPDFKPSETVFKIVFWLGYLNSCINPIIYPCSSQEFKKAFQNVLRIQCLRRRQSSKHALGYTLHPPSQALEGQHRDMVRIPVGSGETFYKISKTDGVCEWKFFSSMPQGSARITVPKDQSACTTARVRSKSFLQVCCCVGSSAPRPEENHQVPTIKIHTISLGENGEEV
In words: Action on isolated vas deferens of a rat (antagonism against noradrenaline). More on the design: species or system SD male rat. As to conditions: 3 minutes pretreatment, 32° C., read-out: pA2 (converted). As for the experimental part:
The vas deferens was isolated from SD male rats and cut into strips about 20 mm long. The both ends of the strip were bounded with two threads respectively. The thread attached to one end of the strips was fixed in a 10-ml organ bath and the thread attached to other end was connected to an isotonic transducer. The bath was filled with Tyrode's solution of 32° C. comprising a solution of 8.0 g of NaCl, 0.2 g of KCl, 0.2 g of CaCl2, 0.1 g of MgCl2, 0.05 g of NaH2 PO4, 1.0 g of NaHCO3 and 1.0 g of glucose in 1 l of deionized water. A gas mixture comprising 95% of oxygen and 5% of carbon dioxide was bubbled into the bath. Resting tension of 0.5 g was loaded. Noradrenaline was treated accumulatively in the bath to obtain a consistent dose-response curve. After the pretreatment of the preparation with a sample compound for 3 minutes, another dose-response curve of noradrenaline was obtained to determine the activities of the compound. The strength of antagonism against noradrenaline was determined from these dose-response curves in terms of pA2 value.

Data set [2] in a line: Acute toxicity, intraperitoneal. As to conditions: mouse, in vivo, ip, ICR male mice, up-and-down method or van der Welden method. The procedure:
The acute toxicity due to intraperitoneal administration of a sample compound was examined by using ICR male mice (CRJ-ICR: weight of 29.5 to 52.3 g). Each sample compound was administered to from ten to thirty mice. The mice were observed until the symptom got well again. The LD50 values were determined by the up-and-down method or by van der Welden method.

The subject of a further data set is SHR rat. Briefly: Hypotensive activity, SHR rat. The data set is classed as in vivo. The conditions noted are these: 3 μg/kg, injected into femoral vein, anesthetized SHR rat. The procedure: (§1) The experiment was carried out using an SHR or SD male rat under anesthesia. The blood pressure was measured by inserting a polyethylene tube (a product of Clay Adams Co., Ltd.: PE-50) into its carotid arteries and using a pressure transducer (a product of Century Technology Company: CP-01) and continuously recorded on a recorder (a product of Nippon Koden Co., Ltd.). Sample compounds were each injected by a polyethylene tube (a product of Clay Adams Co., Ltd.: PE-10) inserted into the femoral vein of the rat in an amount of 3 μg/kg for an SHR rat or 10 μg/kg for an SD rat to examine the maximum hypotensive effect on systolic pressure.

Another data set concerns α1 -receptor. Briefly: α1 -blocking activity (inhibition of blood pressure increase due to phenylephrine). In kind it is in vivo. As to conditions: 10 μg/kg, femoral vein; phenylephrine 2 μg/kg i.v.; anesthetized SD male rat. The procedure:
The blood pressure (a) of an SD male rat of 7 to 8 weeks of age was measured and 2 μg/kg of phenylephrine was administered to the rat by intravenous injection. Then the maximum response of blood pressure (b) was measured. 10 μg/kg of a sample compound was administered to the rats, followed by the intravenous injection of 2 μg/kg of phenylephrine. Then, the maximum response of blood pressure (c) was measured. The depression (d) of blood pressure increased due to phenylephrine was calculated by the following equation: [formula]
The animal was anesthetized by intraperitoneal administration of 40 mg/kg of nembutal and the anesthetic depth was kept by intravenous drip infusion of 15 mg/kg/hr of pentobarbital sodium. The blood pressure was measured by inserting a polyethylene tube (a product of Clay Adams: PE-50) and using a transducer (a product of Century Technology Company: CP-01) and continuously recorded on a pen oscillograph (a product of Nippon Koden Co., Ltd. WI-6416). Each sample compound was injected by a polyethylene tube (a product of Clay Adams Co., Ltd.: PE-10) inserted into the femoral vein.

Another data set has as its system SD rat. In words: Hypotensive activity, SD rat. In kind it is in vivo, SD male rat. The conditions noted are these: 10 μg/kg, injected into femoral vein, anesthetized SD rat. The procedure:
as §1

Usually LD50 stands for the dose expected to kill half of the subjects tested. Low values mean greater toxicity, high ones lower toxicity.

Turning to `CCOc1ccccc1N1CCN(CCn2cnc3ccccc3c2=O)CC1` [Compound 1, 3-[2-[4-(2-Ethoxyphenyl)-1-piperazinyl]-ethyl]-4(3H)-quinazolone], the Kb in data set [1] is 0.501 nM. In data set [2], the LD50 was 400 mg/kg. Also, the “maximum hypotensive effect on systolic pressure, SHR rat” value (from here on “maximum hypotensive effect … SHR rat”) in the data set on SHR rat is “+++ (pressure drop of 21 to 30 mmHg)”.

In the case of `CCOc1ccccc1N1CCN(CCn2c(C)nc3ccccc3c2=O)CC1` [Compound 3], in data set [1], the Kb is 3.16 nM. In addition, the LD50 in data set [2] came out at 119 mg/kg. Also, in the data set with SHR rat, the “maximum hypotensive effect … SHR rat” value was “+++ (pressure drop of 21 to 30 mmHg)”.

In the case of `CCOc1ccccc1N1CCN(CCCn2c(C)nc3ccccc3c2=O)CC1` [Compound 4], the Kb in data set [1] is 10 nM. In data set [2], this molecule displayed a 50% lethal dose (LD50) of 152 mg/kg. Moreover, in the data set on SHR rat, the “maximum hypotensive effect … SHR rat” value is reported as “++ (pressure drop of 11 to 20 mmHg)”.

On to `CCOc1ccccc1N1CCN(CCCCn2cnc3ccccc3c2=O)CC1` [Compound 5, 3-{4-[4-(2-Ethoxyphenyl)-1-piperazinyl]butyl}-4(3H)-quinazolone], for which the Kb in data set [1] was 0.398 nM. The molecule also displayed a median lethal dose (LD50) in data set [2] of 150 mg/kg. In addition, the “maximum hypotensive effect … SHR rat” value in the data set with SHR rat is “+++ (pressure drop of 21 to 30 mmHg)”. In addition, the “Percentage of inhibition of blood pressure increase” value in the data set with α1 -receptor is reported as 89.6%. Further, the “maximum hypotensive effect on systolic pressure, SD rat” value with SD rat turned out to be 57.5 mmHg.

For `CCOc1ccccc1N1CCN(CCCn2c(C)nc3nc(C)cc(C)c3c2=O)CC1` [Compound 6, 2,5,7-Trimethyl-3-[3-[4-(2-ethoxyphenyl)-1-piperazinyl]-propyl]pyrido[2,3-d]pyrimidin-4(3H)-one], the Kb in data set [1] is 2.51 nM. Also, in data set [2], the LD50 is 128 mg/kg. In the data set with SHR rat, the “maximum hypotensive effect … SHR rat” value is “++ (pressure drop of 11 to 20 mmHg)”.

Consider `CCOc1ccccc1N1CCN(CCCCn2c(C)nc3nc(C)cc(C)c3c2=O)CC1` [Compound 7], for which the Kb in data set [1] is 5.01 nM. In data set [2], the LD50 was 137 mg/kg. The “maximum hypotensive effect … SHR rat” value in the data set with SHR rat is “++ (pressure drop of 11 to 20 mmHg)”.

Consider `CCOc1ccccc1N1CCN(CCn2c(C)nc3nc(C)cc(C)c3c2=O)CC1` [Compound 8], for which the Kb in data set [1] was 6.31 nM. The molecule also yielded an LD50 in data set [2] of 207 mg/kg. For the same molecule, the “maximum hypotensive effect … SHR rat” value in the data set with SHR rat was “++ (pressure drop of 11 to 20 mmHg)”.

`CCOc1ccccc1N1CCN(CCCCn2c(=O)n(-c3ccccc3)c(=O)c3c(C)cc(C)nc32)CC1` [Compound 10, 3-Phenyl-5,7-dimethyl-1-[4-[4-(2-ethoxyphenyl)-1-piperazinyl]butyl]pyrido[2,3-d]pyrimidine-2,4(1H,3H)-dione]: the Kb in data set [1] is 7.94 nM. The LD50 in data set [2] is 328 mg/kg. Also, the “maximum hypotensive effect … SHR rat” value in the data set on SHR rat was “++ (pressure drop of 11 to 20 mmHg)”.
